Results on 8 molecules are retold here after ChEMBL document CHEMBL1201862, “PubChem BioAssay data set” (2004).

Test systems include NCI-H23; HOP-62; K562; T47D; CCRF-CEM; UACC-257; HCT-15; IGROV-1; KM12; HOP-92; NCI-H460; MDA-N; A549; NCI/ADR-RES; TK-10; COLO 205; MCF7; SF-268; UACC-62; A498.
Experiment in all cases: NCI tumour cell line growth inhibition, 48 h

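Protocol summary: plate cells (96-well), add compound at 5 concentrations, incubate 48 h, interpolate endpoints linearly. GI50: concentration for 50% inhibition of growth.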 Active and inactive are the calls of the source. Rule as the data show it: active = GI50 up to about 1.1 µM and inactive = higher.

Consider `CC(=O)N(CC(=O)C(=O)NNc1ccoc1)c1ccc(Cl)cc1`, for which the GI50 with NCI-H23 was > 100 µM (inactive); in the assay on HOP-62, > 100 µM (inactive); with K562, 91.4 µM (inactive); in the assay on T47D, > 100 µM (inactive); with CCRF-CEM, 31.9 µM (inactive); with UACC-257, > 100 µM (inactive). For the same molecule, the GI50 in the assay with HCT-15 was 50.5 µM; in the assay with IGROV-1, > 100 µM (inactive); with KM12, > 100 µM (inactive); in the assay on HOP-92, > 100 µM (inactive); in the assay with NCI-H460 it was > 100 µM (inactive); in the assay on MDA-N, > 100 µM (inactive). Further, the GI50 in the assay on A549 is > 100 µM (inactive); in the assay on NCI/ADR-RES, > 100 µM (inactive); in the assay on TK-10, > 100 µM (inactive); in the assay on COLO 205, > 100 µM (inactive); in the assay on MCF7 it was 50.5 µM (inactive); in the assay on SF-268 it was > 100 µM (inactive).
As for `Nc1ccc(C2SCC(=O)N2NS(=O)(=O)c2cccc(C(=O)O)c2)cc1` (centres undefined), the GI50 is > 100 µM (inactive) with NCI-H23; > 100 µM (inactive) in the assay on HOP-62; > 100 µM (inactive) with K562; 58.3 µM (inactive) in the assay with T47D; > 100 µM (inactive) in the assay on UACC-62; 63.8 µM (inactive) in the assay with CCRF-CEM. For the same molecule, the GI50 in the assay on UACC-257 was > 100 µM (inactive); in the assay with HCT-15, > 100 µM; in the assay with IGROV-1, > 100 µM (inactive); in the assay on KM12 it was > 100 µM (inactive); with HOP-92, > 100 µM (inactive); with NCI-H460, > 100 µM (inactive). Besides, the GI50 in the assay on MDA-N, with A549, in the assay with A498, with TK-10, with COLO 205 and in the assay with MCF7 was > 100 µM (inactive) in each case. Moreover, the GI50 in the assay on SF-268 was > 100 µM (inactive).
Regarding `Cc1ccc(S(=O)(=O)N(CC(O)COc2ccccc2)c2ccc(F)cc2F)cc1` (centres undefined), the GI50 in the assay with NCI-H23 is 13.9 µM (inactive); in the assay with HOP-62 it was 15.5 µM (inactive); in the assay on K562, 34.8 µM (inactive); in the assay on T47D it was 17.2 µM (inactive); in the assay on UACC-62, 13.5 µM (inactive); in the assay with CCRF-CEM, 18.9 µM (inactive). For the same molecule, the GI50 in the assay with UACC-257 is 17.9 µM (inactive); in the assay with HCT-15, 17.1 µM; in the assay on KM12 it was 20 µM (inactive); in the assay on HOP-92 it was 0.122 µM (active); in the assay on NCI-H460, 15.8 µM (inactive); in the assay on MDA-N, 15.5 µM (inactive). The GI50 with A549 is 12.9 µM (inactive); in the assay on NCI/ADR-RES it was 15.9 µM (inactive); in the assay with A498 it was 15.3 µM (inactive); in the assay on TK-10, 21.5 µM (inactive); in the assay on COLO 205 it was 15.3 µM (inactive); in the assay with SF-268, 15.3 µM (inactive).
Turning to `CCSC1=N/C(=C\c2ccco2)C(NN)=N1`, the GI50 with NCI-H23, in the assay on HOP-62, with K562, in the assay with T47D, with UACC-62 and in the assay with CCRF-CEM was > 50 µM (inactive) in each case. In addition, the GI50 in the assay with UACC-257 was > 50 µM (inactive); with HCT-15 it was > 50 µM; with IGROV-1 it was > 50 µM (inactive); with KM12, > 50 µM (inactive); in the assay with HOP-92 it was > 50 µM (inactive); in the assay on NCI-H460 it was > 50 µM (inactive). Besides, the GI50 in the assay with MDA-N, in the assay with A549, in the assay with NCI/ADR-RES, with A498, in the assay on TK-10 and in the assay on COLO 205 was > 50 µM (inactive) each time. Further, the GI50 in the assay with SF-268 was > 50 µM (inactive).
In the case of `CC(=O)Nc1ccc(OC2=CCN(C)CC2)cc1`, the GI50 with NCI-H23, with HOP-62, in the assay with K562, with T47D, in the assay with UACC-62 and in the assay with CCRF-CEM was > 100 µM (inactive) each time. Moreover, the GI50 in the assay on UACC-257 was > 100 µM (inactive); in the assay with HCT-15 it was > 100 µM; in the assay on IGROV-1 it was > 100 µM (inactive); in the assay on KM12, > 100 µM (inactive); in the assay with NCI-H460, > 100 µM (inactive); in the assay on MDA-N, > 100 µM (inactive). The GI50 in the assay on A549, in the assay on NCI/ADR-RES, in the assay with TK-10, with COLO 205, in the assay on MCF7 and in the assay with SF-268 was > 100 µM (inactive) each time.
Consider `O=[N+]([O-])c1cccc2nnccc12`, for which the GI50 in the assay on NCI-H23 was 23.3 µM (inactive); with K562, 23.9 µM (inactive); with T47D, 36.8 µM (inactive); in the assay on UACC-62, 13.6 µM (inactive); in the assay with UACC-257, 16.5 µM (inactive); in the assay with HCT-15, 12.9 µM. The GI50 in the assay on IGROV-1 is 24.7 µM (inactive); in the assay with KM12 it was 23.7 µM (inactive); in the assay on HOP-92 it was 24.2 µM (inactive); with NCI-H460, 19.1 µM (inactive); with MDA-N, 17.6 µM (inactive); with A549, 54.8 µM (inactive). Further, the GI50 in the assay on NCI/ADR-RES is 34.1 µM (inactive); in the assay on TK-10, 46.3 µM (inactive); with COLO 205, 13.3 µM (inactive); in the assay on MCF7, 21.1 µM (inactive); in the assay with SF-268 it was 25.2 µM (inactive).
As to `CCCCCCc1ccc(CCCCCCCC(=O)O)o1`, the GI50 was > 100 µM (inactive) in the assay with NCI-H23; > 100 µM (inactive) with HOP-62; 22.3 µM (inactive) with K562; > 100 µM (inactive) in the assay with T47D; 48.5 µM (inactive) in the assay with CCRF-CEM; > 100 µM (inactive) in the assay with UACC-257. The GI50 with HCT-15 was 61.5 µM; in the assay on IGROV-1, > 100 µM (inactive); with KM12, 70.8 µM (inactive); in the assay with HOP-92, > 100 µM (inactive); in the assay with NCI-H460, > 100 µM (inactive); in the assay on MDA-N, > 100 µM (inactive). For the same molecule, the GI50 is 50 µM (inactive) with A549, > 100 µM (inactive) with NCI/ADR-RES, > 100 µM (inactive) in the assay with COLO 205 and 44.8 µM (inactive) in the assay on MCF7.
As to `COC(C/C(=C/CO[Si](C(C)C)(C(C)C)C(C)C)C(=O)Nc1ccccc1I)OC`, the GI50 is 32.9 µM (inactive) in the assay on NCI-H23; 38.2 µM (inactive) in the assay with HOP-62; 14.9 µM (inactive) in the assay with K562; 30.4 µM (inactive) in the assay with T47D; 53.5 µM (inactive) with UACC-62; 9.68 µM (inactive) in the assay with CCRF-CEM. Also, the GI50 in the assay with UACC-257 is 32.6 µM (inactive); in the assay with HCT-15 it was 19.1 µM; in the assay on IGROV-1 it was 2.99 µM (inactive); with KM12 it was 31 µM (inactive); in the assay with HOP-92 it was 19 µM (inactive); in the assay on NCI-H460 it was 25.5 µM (inactive). The GI50 is 23.2 µM (inactive) in the assay with MDA-N; 22.9 µM (inactive) in the assay on A549; 22.9 µM (inactive) in the assay with NCI/ADR-RES; > 100 µM (inactive) with A498; 63.8 µM (inactive) with TK-10; 9.75 µM (inactive) with COLO 205. In addition, the GI50 in the assay with SF-268 is 46.9 µM (inactive).
